According to patent publication US5439932A, “Substituted amine derivatives having anti-hyperlipemia activity” (Banyu Pharmaceutical Co., Ltd., priority 1990, dated 1995):
Where a name gives a salt, the structure may show the parent alone.

Molecular target: T1, Human squalene epoxidase (Homo sapiens, UniProt Q14534)
T1 construct: endogenous in cells; host or cells: Hep-G2 (human hepatoma) cells, microsomes solubilized with Triton X-100
Assay: Human squalene epoxidase inhibition action
Format: biochemical
Conditions: solubilized squalene epoxidase fraction from human hepatoma (Hep-G2) cells; 8 μM 3H-squalene; 37° C., 60 minutes; pH 7.5; read-out: 50% inhibitory concentration (IC50)
Description: Squalene epoxidase inhibition action (1) Preparation of squalene epoxidase Human squalene epoxidase is prepared based on the method disclosed in J. Biol. Chem. 245, 1670 (1970) and ibid. 250, 1572 (1975). Namely, human hepatoma (Hep-G2) cells are cultured at 37° C. under 5% carbon dioxide-mixed air. After completion of the culture the cells are scraped and recovered by centrifugation. The cells are suspended (1×10^8 cells/ml) in a 0.1M Tris-HCl buffer (pH 7.5), the suspension is homogenized and centrifuged at 9,750×g for 10 minutes, and the sediment is washed with a 0.1M Tris-HCl buffer (pH 7.5) and centrifuged at 105,000×g for 1 hour. […] After this solubilization treatment, the solution is diluted with 1 mM EDTA and 1 mM dithiothreitol so that the Triton X-100 concentration becomes 0.125%, and then centrifuged at 105,000×g for 1 hour. The resulting supernatant is used in the later test as a squalene epoxidase fraction. (2) Method for measurement of squalene epoxidase activity Measurement of human squalene epoxidase activity is carried out based on the method disclosed in J. Biol. Chem. 245, 1670 (1970). Namely, […] of a dimethylsulfoxide solution of a test drug is added to a solution consisting of 0.2 ml of the squalene epoxidase fraction prepared in (1) [Protein amount 0.4 mg, 0.1% Triton X-100, […] buffer (pH 7.5)], 100 μM FAD, 1 mM NADPH, 1 mM EDTA and 8 μM ^3 H-squalene-Tween 80 suspension to make the total volume 0.3 ml, and the mixture is subjected to shaking reaction at 37° C. for 60 minutes. 0.3 ml of a 10% potassium hydroxide-methanol solution is added to stop the reaction, and the mixture is heated at 75° C. for 1 hour. Then, after extraction of the nonsaponified substances, the extract is concentrated to dryness in a stream of nitrogen. […] The position of the formed ^3 H-squalene-2,3-epoxide on TLC is ascertained using as a marker ergosterol acetate and the ^3 H-squalene-2,3-epoxidepart of TLC is cut out. The TLC piece is immersed in a toluene series scintillator and measurement is carried out using a liquid scintillation counter. By this, 50% inhibitory concentrations (IC50 values) of compounds of the invention on squalene epoxidase are determined, and the results are shown in the following table.

T1 sequence (Q14534 whole entry): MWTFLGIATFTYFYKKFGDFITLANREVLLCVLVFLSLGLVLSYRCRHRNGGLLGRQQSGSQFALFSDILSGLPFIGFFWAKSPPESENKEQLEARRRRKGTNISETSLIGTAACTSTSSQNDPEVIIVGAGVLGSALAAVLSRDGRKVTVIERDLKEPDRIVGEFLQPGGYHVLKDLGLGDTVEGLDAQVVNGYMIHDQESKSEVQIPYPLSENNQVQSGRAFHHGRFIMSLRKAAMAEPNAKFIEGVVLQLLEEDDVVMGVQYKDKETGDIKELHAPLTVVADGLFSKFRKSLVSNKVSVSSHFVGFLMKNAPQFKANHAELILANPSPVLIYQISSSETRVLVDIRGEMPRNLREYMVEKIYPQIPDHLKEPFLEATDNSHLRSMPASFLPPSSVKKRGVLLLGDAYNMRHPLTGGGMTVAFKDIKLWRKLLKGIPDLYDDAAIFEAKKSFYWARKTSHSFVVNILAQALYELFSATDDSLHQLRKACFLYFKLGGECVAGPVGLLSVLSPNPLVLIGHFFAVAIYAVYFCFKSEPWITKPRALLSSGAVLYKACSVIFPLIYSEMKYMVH

SMILES	IC50
CCN(C/C=C/C#CC(C)(C)OC)Cc1ccc(COC/C=C/c2ccsc2)o1 [Example 30, (E,E)-N-ethyl-N-(6-methoxy-6-methyl-2-hepten-4-ynyl)-5-[3-(3-thienyl)-2-propenyloxymethyl]-2-furylmethylamine hydrochloride]	0.8 nM
CCN(CC#C/C=C/C(C)(C)C)Cc1ccc(COC/C=C/c2ccsc2)o1 [Example 46, (E,E)-N-ethyl-N-(6,6-dimethyl-4-hepten-2-ynyl)-5-[3-(3-thienyl)-2-propenyloxymethyl]-2-furylmethylamine]	0.4 nM
CCN(CC#CC#CC(C)(C)OC)Cc1ccc(/C=C/COCc2ccsc2)o1 [Example 48, (E)-N-ethyl-N-(6-methoxy-6-methyl-2,4-heptadiynyl)-5-[3-(3-thienylmethoxy)-1-propenyl]-2-furylmethylamine]	0.5 nM

The remaining lines, values ahead:

IC50	SMILES
0.3 nM	CCN(C/C=C/C#CC(C)(C)OC)Cc1cccc(COC/C=C/c2ccsc2)c1 [Example 7, (E,E)-N-ethyl-N-7(6-methoxy-6-methyl-2-hepten-4-ynyl)-3-3-(3-thienyl)-2-propenyloxymethyl]benzylamine hydrochloride]
0.4 nM	CCN(C/C=C/C#CC(C)(C)CC)CCOCCOc1cccc(-c2ccsc2)c1 [Example 35, (E)-N-ethyl-N-(6,6-dimethyl-2-octen-4-ynyl)-2-[2-[3-(3-thienyl)phenoxy]ethoxy]ethylamine hydrochloride]
0.2 nM	CN(C/C=C/C#CC(C)(C)C)Cc1ccc(COC/C=C/c2ccsc2)o1 [Example 38, (E,E)-N-methyl-N-(6,6-dimethyl-2-hepten-4-ynyl)-5-[3-(3-thienyl)-2-propenyloxymethyl]-2-furylmethylamine]
